# According to a melting point compilation (Tetko et al.; mined from patent text by program, amines drawn as free bases though some values may be those of a salt):
# Residues, ends and D or L forms follow the SMILES beside them. *: point of attachment. Tos = Cc1ccc(S(=O)(=O)*)cc1
row,melting point [°C],Structure (SMILES)
1,116 to 118,CCOC(=O)CN1CCC2(CC1)CC(c1ccc(C#N)cc1)=NO2
2,55 to 57,C=CCc1cc(Cl)c2ccccc2c1O
3,82,COC(=O)CC[C@H](NC(=O)c1ccc(NCC(=O)OCc2ccccc2)cc1)C(=O)OC
4,221 to 222,CC(C)Nc1nn(C)c(=O)c2cn(Cc3cccc4ccccc34)cc12
5,127 to 129,CS(=O)c1ccc(S(=O)(=O)N2CCCC2=O)cc1 (stereo unspecified)
6,113 to 114,CCOC(=O)N=P(c1ccccc1)(c1ccccc1)c1ccccc1C
7,165 to 175,CN1CCN(C(=O)c2ccc(Nc3cc(NC(=O)Nc4c(Cl)cc(Cl)cc4Cl)ncn3)cc2)CC1
8,84 to 86,CCOC(=O)/C=C/c1ccc(OCC2CCCO2)cc1Oc1ncc(C(F)(F)F)cc1Cl (stereo unspecified)
9,115,CC(C)CCCC(C)C1CCC2C3CC=C4CC(OCCCCCCSC5OCC(O)C(O)C5O)CCC4(C)C3CCC12C (stereo unspecified)
10,270 to 272,Nc1nc2c(Cl)cc(C(F)(F)F)cc2[nH]c1=O
11,195 to 196,O=C(O)[C@@H]1C[C@H]1c1ccc([N+](=O)[O-])cc1 (relative stereo)
12,121 to 123,COc1cc(Cl)ccc1C(=O)NCCc1nc(-c2ccncn2)cc(=O)n1C
13,169 to 170,NCCCNC(=O)c1cccc(Nc2nccc(-c3ccnc(NCCCO)c3)n2)c1
14,119 to 122,CCCc1ccc(-n2nc(Cl)cc2-c2ccc(S(C)(=O)=O)cc2)cc1Cl
15,215 to 216,O=C(Nc1noc2ccccc12)N1CCN(c2nc(-c3ccccc3)no2)CC1
16,146 to 148,CC(C)C[C@H](NC(=O)OC(C)(C)C)C(=O)N[C@H](C(=O)NN)[C@@H](C)O
17,261 to 266,Cn1cc(C(N)=O)c(Nc2ccc(C#N)cc2F)cc1=O
18,180 to 181,Oc1ccc2nc(-c3ccccc3)cc(Cl)c2c1
19,153 to 155,COC(=O)C(C)(C)Cc1ccc(OCc2oc(-c3ccc(C(F)(F)F)cc3)cc2C(=O)O)cc1
20,255 to 257,N#Cc1ccc(Oc2cncc3sc(C(N)=O)cc23)cc1
21,251 to 253,Nc1c(C(=O)O)cc(Br)nc1Br
22,193,COc1cc(C(=O)c2cccnc2)cc([N+](=O)[O-])c1O
23,86,COC[C@H]1CN(c2ccc(CCCC(=O)C3CCCCC3)cc2)C(=O)O1
24,248 to 249,CN1CCN(c2cccc3c2CC(C(=O)Nc2ccc(N4CCOCC4)cc2)C3)CC1 (stereo unspecified)

row,melting point [°C],Structure (SMILES)
1,60 to 63,O=C(NCCO)/C(=C/c1ccc(Cl)cc1)NC(=O)c1ccc(OCCc2ccc(F)cc2)cc1
2,293 to 294,O=S1CCN(c2nc3c(-c4nc(C5CC5)no4)ncn3c3ccccc23)CC1
3,211,O=C(N[C@H]1CC[C@H](CCN2CCC(c3cccc4c3CCO4)CC2)CC1)c1ccnc2ccccc12
4,70 to 72,O=C(NC/C=C\COc1cc(CN2CCCCC2)ccn1)c1csnn1
5,266 to 267,CSc1ccc(-c2cc(=O)nc(N)o2)cc1
6,50.5 to 52,Fc1ccccc1COC1COC(c2ccco2)OC1 (stereo unspecified)
7,123 to 124,COc1nc(OC)c(C(C)C)c(C(C#N)c2cc(C)cc(Br)c2)n1 (stereo unspecified)
8,170 to 173,N=C(N)NCCCCOc1ccc2c(c1)CC(CC(=O)O)C(=O)N2 (stereo unspecified)
9,237 to 238,Cc1ccc2c(c1C#N)c(Sc1ccc(Cl)cc1)c(C)n2CC(=O)O
10,104 to 105,COCC(=O)Nc1ccc2c(c1)CCC2
11,186,CC1(C)SC2C(N3C(=O)C(C4=CCC=CC4)NC3(C)C)C(=O)N2C1C(=O)O (stereo unspecified)
12,203 to 205,Cc1nc(N)c2nc(C)n(NC(C)C)c2c1C
13,75 to 78,O=C(CBr)c1ccc(Cl)cc1OCc1ccccc1
14,95 to 96,O=C(Cn1ccnc1)N1CCC(Oc2c(F)c(F)c(F)c(F)c2F)CC1
15,292 to 293,COc1ccc2c(c1)cc1c3c(cccc32)C(=O)OC1=O
16,> 230,NS(=O)(=O)c1ccc(NN=C2C(=O)Nc3ccc(C(=O)NCCO)cc32)cc1
17,160,CCOC(=O)N1CCC(Nc2nc3ccccc3n2Cc2csc(C)n2)CC1
18,185 to 186,CC(C)N1C(=O)C(NC(=O)Cc2cc(Cl)cc(Cl)c2)C(=O)N(CC(F)(F)F)c2ccccc21 (stereo unspecified)
19,138 to 139,CN(C)C=C(C#N)C(=O)c1cc(F)c(Cl)cc1Cl
20,192,NC(=S)C1(c2ccccn2)CCCS1 (stereo unspecified)
21,99 to 102,CN(C)Cc1ccc2oc(-c3ccc(O)cc3)cc(=O)c2c1
22,129 to 133,COc1ccc2c(c1)C(OC)(c1ccccc1)OC21CCN(Cc2ccccc2)CC1 (stereo unspecified)
23,191,Cc1ccc(S(=O)(=O)c2c(O)c3ccccc3n(C)c2=O)cc1
24,148,OCc1ncc(O)c2c1[nH]c1ccccc12

row,melting point [°C],Structure (SMILES)
1,175 to 177,CSc1sc(C(=O)N2CCOCC2)c2c1-c1oncc1C(C)(C)C2
2,177 to 179,COC(=O)N1CCN(c2ccc(N3CC(CNC(C)=O)OC3=O)cc2F)CC1 (stereo unspecified)
3,162 to 164,Cc1cc(OCC(O)CNC(C)(C)C)ccc1-c1nc(C(F)(F)F)c[nH]1 (stereo unspecified)
4,129 to 131,CC(=O)c1ccc(NS(C)(=O)=O)c(Cl)c1
5,97 to 98,CCCCCCCCCCCC(CC(O)C(C(=O)OC(C)(C)C)S(=O)c1ccc(C)cc1)OC1CCCCO1 (stereo unspecified)
6,105 to 106,COc1cccc(C(=O)N2CCCC(=O)c3ccc(Cl)cc3CCC2=O)c1
7,160 to 162,Cc1ccc(S(=O)(=O)N2CCC[C@H]2C(=O)N[C@@H](C)C(=O)O)cc1 (Tos-Pro-Ala-OH)
8,55 to 56,Cc1c(C)c2c(c(C)c1OCc1ccccc1)CC[C@@](C)(CCO)O2
9,83 to 86,OC1Sc2ccccc2-c2ccccc21 (stereo unspecified)
10,226 to 228,COc1cccc2c1OCC(/C=C/C=C/C=C/C(=O)O)=C2
11,216 to 218,N#CCc1c[nH]c2ccc(NC(=O)c3ccc[nH]3)cc12
12,126 to 128,CCOc1ccc(-n2cccc2-c2ccc(S(N)(=O)=O)cc2)cc1
13,200 to 202,CN(C(=O)CCCOc1ccc2nc3n(c(=O)c2c1)CC(=O)N3)C1CCCCC1
14,148 to 150,CCCCc1nn(-c2cc(NC(C)=O)ccc2Cl)c(=O)n1Cc1ccc(-c2cc(CCC)ccc2S(=O)(=O)NC(=O)c2ccccc2F)cc1F
15,205 to 206,CC(=O)Oc1cc(C(C)=O)c(O)cc1NS(C)(=O)=O
16,121 to 122,CCCNCc1cnc2c(C)c(NC(=O)c3ccc(OC[C@@H]4CCCO4)cc3)ccc2c1
17,177,CC(=O)NS(=O)(=O)c1cc(C(=O)CCl)ccc1Cl
18,128,Cc1cc(C)cc(NCc2ccc3nc(NCC(O)CO)n(Cc4nc(C)ccc4O)c3c2)c1 (stereo unspecified)
19,140,CC(=O)OC1CSC(Oc2cccc(-c3ccc(C)cn3)c2)C(OC(C)=O)C1OC(C)=O (stereo unspecified)
20,96,Cc1c(-c2ccccc2)nn(N)c1OCCN1CCOCC1
21,> 270,Nc1cc(Sc2cccc3cnccc23)c(Cl)cc1[N+](=O)[O-]
22,105 to 107,Cc1cc(C)c2c(n1)N(CCN(C)C)C(=O)N(C)C2
23,61 to 61.5,COc1ccc(OC)c(C=O)c1C
24,74 to 76,CN(C)Cc1ccc(CSCCNC(=C[N+](=O)[O-])NCCCCCCCCCCCCNC(=C[N+](=O)[O-])NCCSCc2ccc(CN(C)C)o2)o1

row,melting point [°C],Structure (SMILES)
1,72 to 75,CCc1ccccc1-c1nc(-c2cccc(OC)c2)n[nH]1
2,168 to 169,CC(C)C(=O)CCC(C)C1CCC2(C#N)C3=CCC4CC(OC(=O)c5ccccc5)CCC4(C)C3CCC12C (stereo unspecified)
3,81.5 to 83.5,COc1ccc2c(O)c(C(C)C)cc(Br)c2c1
4,260,Cc1cccc2nc(NC(=O)c3ccc(C(C)(C)CCC(=O)O)cc3)cn12
5,182,O=c1nc(-c2cccc(CSc3ccncc3)n2)sc2ccccc12
6,171 to 173,Cc1onc(-c2cccc(Cl)c2)c1C(=O)O
7,95,Cc1cccc(NC(=O)c2cc(Cl)cc(C)n2)c1
8,180 to 182,CSc1nc(N)c(N)c(N)n1
9,61.3 to 61.9,Cc1cc(C(=O)N2CCCC2)ccc1[N+](=O)[O-]
10,102 to 123,NCc1ccc(CO)cc1
11,161,CC(=O)OC1CSC(Oc2cccnc2-c2ccncc2)C(OC(C)=O)C1OC(C)=O (stereo unspecified)
12,150,COc1ccc(C23CC(c4ccccc4)C(=O)N2CCN3)cc1 (stereo unspecified)
13,147 to 149,COC(=O)c1cc2c3ccccc3n(-c3ccccc3)c2s1
14,286 to 288,O=C(Nc1nc[nH]n1)c1ccc(-c2ccc3nnn(Cc4ccc5ncccc5c4)c3n2)cc1Cl
15,170 to 171,O=C(O)c1cc(-c2ccccc2)c2ccccc2n1
16,121 to 123,COc1ccc(-c2cnc(C#N)nc2)cc1OC1CCCC1
17,127 to 128,COc1cc(COc2nn(-c3ccccc3)cc2CCc2cscn2)ccc1OCc1nc(-c2ccco2)oc1C
18,87 to 90,CN(C)c1c(C=O)n(C)c(=O)n1-c1cccc(C(F)(F)F)c1
19,152 to 155,Cn1c(-c2ccc(-n3cnc4ccccc43)cc2)cnc1[C@H](Cc1ccccn1)N(C=O)c1cc2ccccc2o1
20,152,COC(=O)CCC(C)C1CCC2C3CC=C4CC(OC(C)=O)CCC4(C)C3CCC12C (stereo unspecified)
21,259 to 261,O=c1ccc2c(-n3cnc(CO)c3)nccc2[nH]1
22,81 to 83,N#CC(=C1CCN(Cc2ccccc2)CC1)c1ccc(F)cc1
23,159 to 161,O=S1(=O)NCN(C2CC2)c2ccc(Cl)cc21
24,185 to 188,O=C(Nc1nc2ccccc2c(=O)n1-c1ccccc1)c1ccccc1

row,Structure (SMILES),melting point [°C]
1,CC(C)NCC(O)c1ccc2c(c1)OCO2 (stereo unspecified),117 to 118
2,CCCCC(CC)COc1ccc(C=C2C(=O)C3CCN2CC3)cc1 (stereo unspecified),37
3,CC(C)C(=O)NC1CCc2c(c3cc(Br)ccc3n2Cc2cccc(F)c2)C1 (stereo unspecified),177 to 179
4,COc1cccc(-c2cc(=O)c3c(OC)cc(OC)c(C4=CCN(C)CC4)c3o2)c1OC,195 to 196
5,CC(CC(C#N)(c1ccccc1)c1ccccn1)N1CCN(C)CC1 (stereo unspecified),89 to 90
